Assay results: a compilation of properties of binary mixtures (doi:10.1016/j.molliq.2018.02.064)

Assay: xn = mol fraction of the nth substance listed
Details: 100 kPa

CCCC[n+]1ccn(C)c1.O=S(=O)([N-]S(=O)(=O)C(F)(F)F)C(F)(F)F + CCO
viscosity [mPa·s]
Details | x1 = 0.2129 | x1 = 0.2688 | x1 = 0.4215 | x1 = 0.4606 | x1 = 0.5784 | x1 = 0.6609 | x1 = 0.747 | x1 = 0.8264 | x1 = 1
293 K | 5.22 | 6.47 | 12.72 | 13.9 | – | 24.9 | 32.4 | 40.9 | 63.5
293.3 K | 5.19 | 6.42 | 12.59 | – | 20.5 | 24.6 | – | 40.4 | 62.7
293.61 K | 5.15 | – | 12.47 | 13.7 | 20.4 | 24.4 | 31.8 | 39.9 | –
293.91 K | – | 6.33 | 12.34 | – | 20.2 | – | 31.4 | 39.4 | 61
294.21 K | 5.08 | 6.28 | – | 13.42 | 20 | – | 31.1 | 38.9 | –
294.52 K | 5.05 | 6.24 | 12.1 | 13.3 | 19.8 | 23.7 | – | – | –
294.82 K | 5.01 | 6.19 | – | 13.18 | 19.6 | 23.5 | 30.5 | 38 | –
295.12 K | 4.98 | 6.15 | – | 13.06 | 19.4 | 23.3 | – | 37.6 | 57.8
295.42 K | – | – | 11.75 | – | 19.2 | 23.1 | 29.9 | 37.1 | 57
295.73 K | 4.91 | 6.06 | 11.64 | 12.82 | 19 | 22.8 | 29.5 | – | 56.3
296.03 K | 4.87 | 6.02 | 11.52 | 12.7 | 18.9 | 22.6 | 29.2 | 36.2 | 55.6
296.33 K | 4.84 | 5.98 | 11.41 | 12.59 | 18.7 | 22.4 | 28.9 | 35.8 | 54.8
296.64 K | 4.81 | – | 11.31 | – | 18.5 | 22.2 | 28.6 | 35.4 | –
296.94 K | 4.77 | 5.89 | 11.2 | – | 18.34 | 22 | – | 35 | 53.4
297.24 K | 4.74 | – | – | 12.25 | – | 21.8 | – | 34.5 | 52.7
297.55 K | 4.71 | 5.81 | 10.99 | 12.14 | 18 | 21.6 | 27.8 | – | 52.1
297.85 K | 4.68 | 5.77 | 10.88 | 12.04 | 17.83 | 21.4 | 27.5 | 33.7 | –
298.15 K | – | – | 10.78 | 11.93 | 17.67 | 21.2 | 27.2 | 33.3 | 50.8
298.45 K | 4.61 | 5.69 | 10.68 | 11.82 | 17.5 | – | – | 33 | 50.1
298.76 K | 4.58 | 5.65 | – | 11.72 | 17.34 | 20.8 | 26.7 | – | 49.5
299.06 K | – | 5.61 | 10.49 | 11.62 | – | – | 26.4 | 32.2 | 48.9
299.36 K | 4.52 | 5.57 | 10.39 | 11.52 | 17.03 | 20.4 | 26.2 | 31.8 | 48.3
299.67 K | 4.48 | 5.53 | 10.29 | – | 16.87 | 20.2 | 25.9 | 31.5 | 47.7
299.97 K | – | 5.49 | 10.2 | 11.31 | – | 20 | 25.6 | 31.1 | 47.1
300.27 K | – | 5.45 | – | 11.22 | 16.56 | 19.9 | – | – | 46.5
300.58 K | 4.39 | 5.41 | – | 11.12 | 16.41 | 19.7 | 25.1 | 30.4 | 45.9
300.88 K | 4.36 | – | – | 11.02 | 16.26 | 19.5 | 24.9 | 30.1 | 45.4
301.18 K | 4.33 | – | 9.84 | 10.93 | 16.11 | 19.3 | 24.6 | 29.7 | 44.8
301.48 K | – | 5.3 | 9.75 | 10.83 | 15.97 | 19.1 | 24.4 | 29.4 | 44.3
301.79 K | 4.27 | 5.26 | 9.66 | 10.74 | 15.82 | 19 | 24.2 | 29 | 43.7
302.09 K | 4.24 | 5.22 | 9.57 | 10.65 | 15.68 | 18.8 | 23.9 | 28.7 | 43.2
302.39 K | 4.21 | 5.19 | 9.49 | – | 15.54 | 18.6 | 23.7 | 28.4 | 42.7
302.7 K | – | – | 9.41 | 10.47 | 15.4 | 18.5 | – | – | 42.2
303 K | 4.15 | 5.11 | 9.32 | – | 15.26 | 18.3 | – | 27.8 | 41.7
303.3 K | 4.13 | – | 9.24 | 10.29 | 15.12 | 18.1 | 23 | 27.4 | 41.2
303.61 K | 4.1 | 5.04 | 9.16 | 10.2 | 14.99 | 18 | 22.8 | 27.1 | 40.7
303.91 K | 4.07 | 5 | 9.08 | 10.12 | 14.85 | 17.8 | 22.6 | – | 40.2
304.21 K | 4.04 | 4.97 | 9 | 10.03 | 14.72 | 17.6 | 22.3 | 26.5 | 39.8
304.52 K | 4.01 | 4.93 | 8.92 | – | – | 17.5 | 22.1 | 26.2 | –
304.82 K | 3.98 | – | – | 9.87 | 14.46 | 17.3 | – | 26 | 38.9
305.12 K | 3.96 | 4.86 | 8.77 | 9.78 | 14.33 | 17.1 | 21.7 | 25.7 | –
305.42 K | 3.93 | 4.83 | 8.7 | 9.7 | 14.2 | 16.99 | 21.5 | 25.4 | 38
305.73 K | 3.9 | 4.8 | 8.62 | 9.62 | 14.07 | 16.84 | 21.3 | 25.1 | 37.5
306.03 K | 3.88 | – | 8.55 | 9.54 | 13.95 | 16.69 | 21.1 | 24.8 | 37.1
306.33 K | 3.85 | 4.73 | 8.48 | 9.46 | – | 16.54 | 20.9 | – | 36.7
306.64 K | 3.82 | – | 8.41 | 9.39 | 13.7 | – | 20.7 | 24.3 | 36.2
306.94 K | – | 4.66 | 8.34 | 9.31 | 13.58 | 16.24 | 20.5 | 24 | 35.8
307.24 K | 3.77 | 4.63 | – | – | 13.46 | 16.09 | 20.3 | 23.8 | 35.4
307.55 K | 3.74 | 4.6 | 8.2 | 9.16 | 13.34 | 15.95 | 20.1 | 23.5 | 35
307.85 K | 3.72 | 4.56 | 8.13 | 9.08 | 13.23 | – | – | – | –
